Values of other authors, collected in patent publication US7838696B2, “Hydroconversion process employing multi-metallic catalysts and method for making thereof” (Chevron U. S. A. Inc., priority 2007, dated 2010).

Tested on: rats
Conditions: rat, in vivo, po

Structure (SMILES): O=CC(=O)O [glyoxylic, glyoxylic acid]
- LD50: 3000 mg/kg
